Source: patent US8283361B2 (AstraZeneca AB, priority 2008, dated 2012)

target: S. aureus GyrB ATPase (Staphylococcus aureus, UniProt P0A0K8); experiment: biochemical; conditions: compound at 1 μM; one value per test if tested more than once; read-out: % Inhibition of S. aureus GyrB ATPase
Method in brief: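 IC50 values derive from 10-point titrations of compound (in DMSO). Phosphate formed from 250 μM ATP was quantified by acidic molybdate/malachite green after quenching.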

Sequence of S. aureus GyrB ATPase (P0A0K8 whole entry): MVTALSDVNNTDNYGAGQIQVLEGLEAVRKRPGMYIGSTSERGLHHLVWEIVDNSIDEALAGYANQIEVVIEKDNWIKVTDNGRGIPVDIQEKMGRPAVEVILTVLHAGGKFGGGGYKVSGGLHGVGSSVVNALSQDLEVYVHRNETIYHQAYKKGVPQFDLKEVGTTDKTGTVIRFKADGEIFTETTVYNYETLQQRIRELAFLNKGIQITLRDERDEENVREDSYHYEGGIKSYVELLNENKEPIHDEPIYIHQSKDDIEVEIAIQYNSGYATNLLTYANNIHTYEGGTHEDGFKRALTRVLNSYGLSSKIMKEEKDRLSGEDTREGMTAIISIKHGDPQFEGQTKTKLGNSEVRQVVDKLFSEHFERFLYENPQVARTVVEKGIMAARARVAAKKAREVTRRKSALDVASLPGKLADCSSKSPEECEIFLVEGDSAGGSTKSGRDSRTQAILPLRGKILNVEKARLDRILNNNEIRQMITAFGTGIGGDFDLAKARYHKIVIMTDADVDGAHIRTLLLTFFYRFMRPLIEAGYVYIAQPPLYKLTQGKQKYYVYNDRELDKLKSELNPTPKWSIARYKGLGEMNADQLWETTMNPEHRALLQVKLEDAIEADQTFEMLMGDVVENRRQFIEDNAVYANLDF
Sequence of S. aureus GyrB ATPase (P0AES4 whole entry, further chain): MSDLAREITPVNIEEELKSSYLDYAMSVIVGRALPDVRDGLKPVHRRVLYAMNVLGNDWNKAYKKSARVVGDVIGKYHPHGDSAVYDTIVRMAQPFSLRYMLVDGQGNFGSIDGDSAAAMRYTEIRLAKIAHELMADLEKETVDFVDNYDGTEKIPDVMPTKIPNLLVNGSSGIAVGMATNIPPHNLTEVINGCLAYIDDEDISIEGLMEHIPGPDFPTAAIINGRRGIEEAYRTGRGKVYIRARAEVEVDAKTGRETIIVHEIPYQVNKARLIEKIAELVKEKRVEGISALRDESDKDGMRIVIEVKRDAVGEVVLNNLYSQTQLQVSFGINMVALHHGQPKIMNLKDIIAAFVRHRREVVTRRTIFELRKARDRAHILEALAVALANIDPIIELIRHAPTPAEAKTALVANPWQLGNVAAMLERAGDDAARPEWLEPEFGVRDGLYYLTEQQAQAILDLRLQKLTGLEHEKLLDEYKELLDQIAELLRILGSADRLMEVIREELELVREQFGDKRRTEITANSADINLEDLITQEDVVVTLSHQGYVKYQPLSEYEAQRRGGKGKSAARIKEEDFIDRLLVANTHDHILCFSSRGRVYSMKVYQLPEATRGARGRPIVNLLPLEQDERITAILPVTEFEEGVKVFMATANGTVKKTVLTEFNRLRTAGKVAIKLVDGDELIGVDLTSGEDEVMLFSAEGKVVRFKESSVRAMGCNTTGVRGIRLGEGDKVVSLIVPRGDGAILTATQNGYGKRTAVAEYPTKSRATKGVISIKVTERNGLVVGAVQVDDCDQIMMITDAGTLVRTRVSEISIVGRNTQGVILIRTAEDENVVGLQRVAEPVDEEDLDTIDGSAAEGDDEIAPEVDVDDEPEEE

Going from `CCNC(=O)Nc1cc(-c2nc(C(F)(F)F)cs2)c(-c2ccc3c(c2)c(=O)c(C(=O)O)cn3C2CCOCC2)cn1` [Example 321, 6-(6-(3-Ethylureido)-4-(4-(trifluoromethyl)thiazol-2-yl)-pyridin-3-yl)-4-oxo-1-(tetrahydro-2H-pyran-4-yl)-1,4dihydroquinoline-3-carboxylic acid] to `CCNC(=O)Nc1cc(-c2nc(C(F)(F)F)cs2)c(-c2ccc3c(c2)c(=O)c(C(=O)O)cn3C2CCCCC2)cn1` [Example 322, 1-Cyclohexyl-6-(6-(3-ethylureido)-4-(4-(trifluoro-methyl)thiazol-2-yl)pyridin-3-yl)-4-oxo-1,4-dihydroquinoline-3-carboxylic acid], the inhibition at 1 µM falls from 100% to 96%.

First: CCNC(=O)Nc1cc(-c2nc(C(F)(F)F)cs2)c(-c2ccc3c(c2)c(=O)c(C(=O)O)cn3C2CCN(C)CC2)cn1 [Example 323, 6-(6-(3-Ethylureido)-4-(4-(trifluoromethyl)thiazol-2-yl)pyridin-3-yl)-1-(1-methyl-piperidin-4-yl)-4-oxo-1,4-dihydro-quinoline-3-carboxylic acid]
Second: CCNC(=O)Nc1cc(-c2nc(C(F)(F)F)cs2)c(-c2ccc3c(c2)c(=O)c(C(=O)NC2CC2)cn3C2CC2)cn1 [Example 326, N,1-Dicyclopropyl-6-(6-(3-ethylureido)-4-(4-(trifluoromethyl)thiazol-2-yl)pyridin-3-yl)-4-oxo-1,4-dihydroquino-line-3-carboxamide]
The inhibition at 1 µM of the first is higher: 106% for the first, 97% for the second.

Compared with `CCNC(=O)Nc1cc(-c2nc(C(F)(F)F)cs2)c(-c2ccc3c(c2)c(=O)c(C(=O)NCCOC)cn3C2CC2)cn1` [Example 325, 1-Cyclopropyl-6-(6-(3-ethylureido)-4-(4-(trifluoromethyl)thiazol-2-yl)pyridin-3-yl)-N-(2-methoxyethyl)-4-oxo-1,4-dihydroquinoline-3-carboxamide], `CCNC(=O)Nc1cc(-c2nc(C(F)(F)F)cs2)c(-c2ccc3c(c2)c(=O)c(C(=O)NC(COC)COC)cn3C2CC2)cn1` [Example 327, 1-Cyclopropyl-N-(1,3-dimethoxy-propan-2-yl)-6-(6-(3-ethylureido)-4-(4-(trifluoromethyl)thiazol-2-yl)pyridin-3-yl)-4-oxo-1,4-dihydroquinoline-3-carboxamide] is higher in inhibition at 1 µM: 96% for the first, 100% for the second.

`CCNC(=O)Nc1cc(-c2nc(C(F)(F)F)cs2)c(-c2ccc3c(c2)c(=O)c(C(=O)NCC(O)CO)cn3C2CC2)cn1` (stereo not drawn) [Example 328, 1-Cyclopropyl-N-(2,3-dihydroxy-propyl)-6-(6-(3-ethylureido)-4-(4-(trifluoromethyl)thiazol-2-yl)pyridin-3-yl)-4-oxo-1,4-dihydroquinoline-3-carboxamide] and `CCNC(=O)Nc1cc(-c2nc(C(F)(F)F)cs2)c(-c2ccc3c(=O)c(C(=O)NCCO)cn(CC)c3c2)cn1` [Example 330, 1-Ethyl-7-{6-[(ethylcarbamoyl)amino]-4-[4-(trifluoromethyl)-1,3-thiazol-2-yl]pyridin-3-yl}-N-(2-hydroxyethyl)-4-oxo-1,4-dihydroquinoline-3-carboxamide] are the same in inhibition at 1 µM: 109% for the first, 109% for the second.

Going from `CCNC(=O)Nc1cc(-c2nc(C(F)(F)F)cs2)c(-c2ccc3c(c2)c(=O)c(C(=O)NCCO)cn3Cc2noc(C3CC3)n2)cn1` [Example 329] to `CCNC(=O)Nc1cc(-c2nc(C(F)(F)F)cs2)c(-c2ccc3c(=O)c(C(=O)NCCCO)cn(CC)c3c2)cn1` [Example 331, 1-Ethyl-7-{6-[(ethylcarbamoyl)amino]-4-[4-(trifluoromethyl)-1,3-thiazol-2-yl]pyridin-3-yl}-N-(3-hydroxypropyl)-4-oxo-1,4-dihydroquinoline-3-carboxamide], the inhibition at 1 µM rises from 97% to 109%.

First: CCNC(=O)Nc1cc(-c2nc(C(F)(F)F)cs2)c(-c2ccc3c(=O)c(C(=O)NCCN(C)C)cn(CC)c3c2)cn1 [Example 332, N-[2-(dimethylamino)ethyl]-1-ethyl-7-{6-[(ethylcarbamoyl)amino]-4-[4-(trifluoromethyl)-1,3-thiazol-2-yl]pyridin-3-yl}-4-oxo-1,4-dihydroquinoline-3-carboxamide]
Second: CCNC(=O)Nc1cc(-c2nc(C(F)(F)F)cs2)c(-c2ccc3c(=O)c(C(=O)NCCN(C)C)cn(CCC(C)C)c3c2)cn1 [Example 338, N-[2-(dimethylamino)ethyl]-7-{6-[(ethylcarbamoyl)amino]-4-[4-(trifluoromethyl)-1,3-thiazol-2-yl]pyridin-3-yl}-1-(3-methylbutyl)-4-oxo-1,4-dihydroquinoline-3-carboxamide]
The inhibition at 1 µM of the first is higher: 109% for the first, 99% for the second.

Going from `CCNC(=O)Nc1cc(-c2nc(C(F)(F)F)cs2)c(-c2ccc3c(=O)c(C(=O)NCCN4CCOCC4)cn(CC)c3c2)cn1` [Example 333, 1-Ethyl-7-{6-[(ethylcarbamoyl)amino]-4-[4-(trifluoromethyl)-1,3-thiazol-2-yl]pyridin-3-yl}-N-[2-(morpholin-4-yl)ethyl]-4-oxo-1,4-dihydroquinoline-3-carboxamide] to `CCNC(=O)Nc1cc(-c2nc(C(F)(F)F)cs2)c(-c2ccc3c(=O)c(C(=O)NCCN4CCOCC4)cn(CCC(C)C)c3c2)cn1` [Example 339, 7-{6-[(ethylcarbamoyl)amino]-4-[4-(trifluoromethyl)-1,3-thiazol-2-yl]pyridin-3-yl}-1-(3-methylbutyl)-N-[2-(morpholin-4-yl)ethyl]-4-oxo-1,4-dihydroquinoline-3-carboxamide], the inhibition at 1 µM rises from 106% to 109%.

Going from `CCNC(=O)Nc1cc(-c2nc(C(F)(F)F)cs2)c(-c2ccc3c(=O)c(C(=O)NCCN4CCN(C)CC4)cn(CC)c3c2)cn1` [Example 334, 1-Ethyl-7-{6-[(ethylcarbamoyl)amino]-4-[4-(trifluoromethyl)-1,3-thiazol-2-yl]pyridin-3-yl}-N-[2-(4-methylpiperazin-1-yl)ethyl]-4-oxo-1,4-dihydroquinoline-3-carboxamide] to `CCNC(=O)Nc1cc(-c2nc(C(F)(F)F)cs2)c(-c2ccc3c(=O)c(C(=O)NCCO)cn(CCC(C)C)c3c2)cn1` [Example 336, 7-{6-[(ethylcarbamoyl)amino]-4-[4-(trifluoromethyl)-1,3-thiazol-2-yl]pyridin-3-yl}-N-(2-hydroxyethyl)-1-(3-methylbutyl)-4-oxo-1,4-dihydroquinoline-3-carboxamide], the inhibition at 1 µM rises from 95% to 109%.

Going from `CCNC(=O)Nc1cc(-c2nc(C(F)(F)F)cs2)c(-c2ccc3c(=O)c(C(=O)NC)cn(CCC(C)C)c3c2)cn1` [Example 335, 7-{6-[(ethylcarbamoyl)amino]-4-[4-(trifluoromethyl)-1,3-thiazol-2-yl]pyridin-3-yl}-N-methyl-1-(3-methylbutyl)-4-oxo-1,4-dihydroquinoline-3-carboxamide] to `CCNC(=O)Nc1cc(-c2nc(C(F)(F)F)cs2)c(-c2ccc3c(=O)c(C(=O)NCCCO)cn(CCC(C)C)c3c2)cn1` [Example 337, 7-{6-[(ethylcarbamoyl)amino]-4-[4-(trifluoromethyl)-1,3-thiazol-2-yl]pyridin-3-yl}-N-(3-hydroxypropyl)-1-(3-methylbutyl)-4-oxo-1,4-dihydroquinoline-3-carboxamide], the inhibition at 1 µM falls from 107% to 106%.
